Source: patent publication US20100144690A1, “MEDICAMENTS AND METHODS FOR PROMOTING WOUND CONTRACTION” (RENOVO LIMITED, priority 2006, published 2010)

Key:
[1] = tested on: incisional wounds; experiment: Incisional scarring model, macroscopic and microscopic VAS scar assessment 70 days after wounding; type: in vivo, Male Sprague Dawley rats
Protocol: The guggulsterone (Z) was diluted in a solution containing 1% v/v ethanol (absolute ethanol, 200 proof, for molecular biology, purchased from Sigma-Aldrich) in phosphate buffered saline (PBS) to produce three solutions having concentrations as follows: • 1. 1 ng/100 μl (a 32 nM solution); • 2. 10 ng/100 μl (a 321 nM solution); and • 3. 1000 ng/100 μl (a 32 μM solution). At Day 0, male Sprague Dawley rats (200-250 g) were anaesthetised, shaved and wound sites were marked according to the Renovo rat incisional wounding template (2 wound model, 2×1 cm wounds at 5 cm from the base of the skull and 1 cm from the midline in each rat). […] The scars were assessed using standard macroscopic scar assessment sheets that include a Visual Analogue Scale (VAS) to quantify the quality of the scars. […] 70 days after wounding the experimental rats were killed, and the scars resulting from treated wounds and control wounds assessed both macroscopically and microscopically. The scars of the experimental rats were photographed and assessed using macroscopic scar assessment sheets. […] The best scars (typically of small width with colour, height and contour like normal skin) were scored towards the normal skin end of the scale (the left hand side of the VAS line) and bad scars (typically large width, raised with uneven contours and whiter colour) were scored towards the bad scar end of the scale (the right hand side of the VAS line). The marks were measured from the left hand side to provide the final value for the scar assessment in centimetres (to 1 decimal place). […] Histological slides were stained using Masson's trichrome, and scarring assessed, by two independent observers, using a microscopic visual analogue scale (VAS). […]

[2] = tested on: excisional wounds; experiment: Excisional wound healing model, wound width and re-epithelialisation three days after wounding; type: in vivo, Male Sprague Dawley rats; settings: for wound width of excisional wounds: three days after wounding, p<0.05 vs controls
Protocol: The guggulsterone (Z) was diluted in a solution containing 1% v/v ethanol (absolute ethanol, 200 proof, for molecular biology, purchased from Sigma-Aldrich) in phosphate buffered saline (PBS) to produce three solutions having concentrations as follows: • 1. 1 ng/100 μl (a 32 nM solution); • 2. 10 ng/100 μl (a 321 nM solution); and • 3. 1000 ng/100 μl (a 32 μM solution). At day 0, Male Sprague Dawley rats (200-250 g) were anaesthetised, shaved and wound sites were marked according to the Renovo rat incisional and excisional wounding template (4 wound model, 2×1 cm wounds at 5 cm from the base of the skull and 1 cm from the midline in each rat and 2×5 mm excisions at 8.5 cm from the base of the skull and 1 cm from the midline of each rat). One hundred microlitres of Guggulsterone (Z) at 1 ng, 10 ng or 1000 ng in 1% v/v ethanol/PBS (EtOH/PBS), were injected intradermally at the target wound sites, A, B, C and D. The intradermal injections caused the formation of a raised bleb, which was then either immediately incised to form 1 cm long experimental wounds at wound positions A and B, or subject to a 5 mm punch biopsy, at wound positions C and D. A separate group of rats were wounded, without any injection, to act as the untreated Naïve control group in addition to the diluent injected control group. All treated wounds were re-injected again 1 day post-wounding with the appropriate treatment via either injection of […] to each of the two margins of the 1 cm wound, or via injection of 25 μl to each of the four quadrants of a 5 mm punch biopsy, and harvested at day 3 post-wounding. […] The wounds were assessed using standard macroscopic wound assessment sheets that include a Visual Analogue Scale (VAS) to quantify the quality of the wounds. The excisions and incisions were analysed microscopically, after histological processing by image analysis for re-epithelialisation (excisions only) and wound width (incisions only) to determine the role of Guggulsterone (Z) on early wound healing. […] The average wound width value was calculated from all of the wounds at each treatment group.

[3] = cited from earlier work
[4] = each concentration investigated (1, 10, 1000 ng/100 μl), 70 days post-wounding

SMILES: C/C=C1\C(=O)CC2C3CCC4=CC(=O)CC[C@]4(C)C3CC[C@]12C (stereo partly drawn) [Guggulsterone (Z), (17Z)-Pregna-4,17(20)-diene-3,16-dione-4,17(20)-cis-Pregnadiene-3,16-dione]
- inhibition of scarring, macroscopic analysis of scars [1, 4]: significantly inhibit scarring
- inhibition of scarring, microscopic analysis of scars [1, 4]: significantly inhibit scarring
- macroscopic appearance of treated scar versus naïve control scar (FIG. 3) ([1]; representative images, 70 days after wounding): considerably more difficult to detect
- wound width of excisional wounds ([2]; 1 ng/100 μl (3.2 pmoles per cm of wound)): significantly decreased wound width
- wound width of excisional wounds ([2]; 10 ng/100 μl (32 pmoles per cm of wound)): significantly decreased wound width
- promotion of wound contraction, by width of excisional wounds ([2]; three days after wound formation): able to promote wound contraction
- soluble in DMSO ([3]; DMSO, room temperature): 5 mg/mL
- soluble in ethanol ([3]; ethanol): soluble
